Consider five compounds from patent US20260055118A1, “VISIBLE LIGHT SENSITIVE PHOTOREMOVABLE PROTECTING GROUPS, PREPARATION PROCESS THEREOF, PHOTOACTIVATABLE CONJUGATES COMPRISING THEM AND USES THEREOF” (HUN-REN TERMÉSZETTUDOMÁNYI KUTATÓKÖZPONT, priority 2022, published 2026).

Data set [1] is described as follows: Spectroscopic properties of the target conjugates in PBS. Format: physicochemical. The following applies: for ε (molar absorption coefficient): at the absorption maximum. As for the experimental part: All starting materials were obtained from commercial suppliers and used without further purification. Analytical thin-layer chromatography (TLC) was performed on silica gel 60 F254 precoated aluminum TLC plates from Merck. Flash column chromatography was performed on Teledyne Isco CombiFlash® Rf+ automated flash chromatographer with silica gel (25-40 μm) from Zeochem. NMR spectra were recorded on a Varian Inova 500 MHz spectrometer. Chemical shifts (δ) are given in parts per million (ppm) using solvent signals or TMS as the reference. Coupling constants (J) are reported in Hertz (Hz). Analytical RP-HPLC-UV/Vis-MS measurements were employed using a Shimadzu LCMS-2020 instrument applying a Gemini C18 column (100×2.00 mm I.D.) in which the stationary phase is […] with a pore size of 110 Å. The chromatograms were detected by a UV-Vis diode array (190-800 nm) and an ESI-MS detector. The following linear gradient elution profile was applied, 0 min 0% B; 6.5 min 100% B; 7 min 0% B; 8 min. 0% B) with eluent A (2% HCOOH, 5% MeCN and 93% water) and B (2% HCOOH, 80% MeCN and 18% water) at a flow rate of 1.0 mL min-1 at 30° C. The samples were dissolved in MeCN—water mixtures. Spectroscopic measurements were performed on a Jasco FP 8300 spectrofluorometer. Quartz cuvettes with path length of 1 cm were used.
The spectroscopic properties of the target conjugates were determined in PBS. […] Compounds with Q=O have absorption bands in the green-yellow region while Q=CMe2 derivatives absorb in the red (up to 700 nm). All of the compounds have moderate to high absorption coefficients and significant fluorescence. The spectroscopic details can be found in Table 1. In the table, λmax means absorption maximum; λem means fluorescence emission maximum; s means molar absorption coefficient (at the absorption maximum).

Data set [2] is described as follows: Uncaging quantum yield determination relative to BODIPY reference. The format is physicochemical. The following applies: for ε × Φu, uncaging cross-section / quantum efficiency: at the wavelength in parentheses beside each value (538-660 nm); for Φu, uncaging quantum yield: calculated from active agent release; for Φu, uncaging quantum yield / Φdeg, degradation quantum yield: green light irradiation; for Φdeg, degradation quantum yield: calculated from the disappearance of the target conjugate. As for the experimental part: The relative photochemical quantum yields of the uncaging reactions together with the degradation quantum yields were determined from the results of the quantitative HPLC-UV experiments. In all cases, green light irradiation was used since all target conjugates absorbed in this range as well as the reference BODIPY. The photochemical quantum yields were determined using the following equation:
[formula] • where • Φu is the photochemical quantum yield of the sample • Φu,ref is the photochemical quantum yield of the reference • k is the obtained reaction rate constant of the photoreaction of the sample • kref is the obtained reaction rate constant of the photoreaction of the reference • c is the concentration of the sample • cref is the concentration of the reference • V is the volume of the sample • Vref is the volume of the reference • a is the absorption correction factor of the sample • aref is the absorption correction factor of the reference
The absorption correction factors (a) were determined from the molar absorption coefficients and the green LED emission data obtained by the fluorimeter. […] In other words, the transmittance at each wavelength together with the emission data of the light source can be used to calculate the percentage of absorbed photons according to the following equation:
[formula] • where • T(λ) is the transmittance at each wavelength (determined from the molar absorption coefficients) • F(λ) is the LED emission at each wavelength • λmin, λmax is the LED emission range.
The rate constants of the photoreactions were determined by considering the reactions monoexponential with an initial linear phase (up to 10-20% degradation). First, the concentration vs. HPLC-UV peak were determined for each cargo moieties. […] The rate constants were determined for both the reference (with known Φu) and the sample. For reference, a commonly known BODIPY derivative was used with a similar phenylacetic acid-derived cargo unit (substrate 7 from REF^40), Φu=0.15%:
The calculated photochemical quantum yields together with uncaging cross-sections or quantum efficiencies (product of the molar absorption coefficient at a given wavelength, shown in parentheses and the photochemical quantum yield) are shown in Table 2. In the table, Φu is the photochemical quantum yield of the release; Φdeg is the photochemical quantum yield of degradation; ε×Φu is the uncaging cross-section or quantum efficiency of the release at a given wavelength in parentheses.

Data set [3] in a line: Uncaging experiments, LED irradiation followed by HPLC-UV-MS. The format is physicochemical. The settings on record: green light, 60 s. As for the experimental part: The uncaging experiments were performed using green (4 W input power, λmax=549 nm half-width: 16 nm, output power: 72 mW), orange (4 W input power, λmax=605 nm half-width: 10 nm, output power: 140 mW) and red (4 W input power, λmax=658 nm half-width: 10 nm, output power: 210 mW) LEDs as light source. Sample solutions were prepared, each containing 1 ml of solvent (90% v/v water-MeCN or 90% PBS-MeCN or 100% methanol for the photochemical quantum yield determination) and 0.1 mM or 0.05 mM concentration of the photoactivatable conjugates. The samples were irradiated for a given time using continuous water cooling for the light source. Then, the samples were transferred to the HPLC-UV-MS system and the chromatograms were recorded. The traces at 195 nm, 254 nm or 369 nm (dependent on the cargo moieties) and at the absorption maxima of the photoremovable protecting groups (530 nm, 570 nm or 640 nm) were compared and the corresponding peaks were integrated and compared to reference calibration sets. The possible photoproducts were identified by their corresponding m/z value and also from the UV/VIS spectra from the DAD-equipped instrument. For the dark stability experiments, the HPLC sample solutions were kept in the dark and chromatograms were recorded multiple times.
The photouncaging was evaluated by HPLC-MS using green (4 W input power, λmax=549 nm half-width: 16 nm, output power: 72 mW), orange (4 W input power, λmax=605 nm half-width: 10 nm, output power: 140 mW) and red (4 W input power, λmax=658 nm half-width: 10 nm, for Q=CMe2 output power: 210 mW) LED irradiation. For all compounds the experiments were performed in 90% water/MeCN mixtures as well as in 90% PBS/MeCN (0.1 mM concentration). In all cases, the irradiation led to the release of the model active agents with significant differences based on the photoremovable protecting group, cargo unit and the connecting chemical moiety as well as on the water content of the uncaging medium. Comparing the green light absorbing target conjugates, irradiation of 39 led to the release of 54% phenylacetic acid in 60 s (FIG. 6b), while 180 s (for 50%) was required for the same result in case of 41. Approximately 65% of phenylacetic acid was released after 180 s of irradiation with orange light from model target conjugate 41 (FIG. 6a). The current state of the art BODIPY derivative (for the structure, see the next section),^20,21 released only 12% phenylacetic acid after irradiation for 1800 s. Contrary to the general expectations that increasing the wavelength diminishes photolysis rates, the uncaging of the redshifted Q=CMe2 derivative 43 was also very effective, reaching >70% release of phenylacetic acid in 120 s after red light irradiation (FIG. 6c). The high efficiency of 43 as a red light-activatable photoremovable protecting group was also compared to a π-extended BODIPY derivative (substrate 7 in REF^21, using methanol as the solvent in a concentration of 0.1 mM), the current state of the art in this region of visible light.
Importantly, except in the case of compounds wherein the connecting chemical moiety was a carbonate moiety (i.e., compound 51, FIG. 6f), the target conjugates were stable in water as well as in PBS for 24 hours in the dark. The stability and uncaging rates of several leaving groups was also assessed. Comparing the most important functional groups (carboxylic acid, amine, phenol, alcohol) in potential active agents connected via the typical linkages in the target conjugates, the carbonate bond was the most labile (compound 51, >70% decomposition in 30 s with red light at 50% power) although the long-term dark stability was poor. None of the other model active agents were released in significant quantities, however, after 24-28 hours in the dark (for dark stability data see FIGS. 6a-6h, right side).
Using HPLC-MS, not only the appearance of the released model active agents could be monitored but also the products of photolysis were detectable. […]

The next data set deals with SK-OV-3 cells. Description: Cytotoxicity determination, MTT assay, with light irradiation and in the dark. The format is cell-based, human. The settings on record: for cell viability: DARK. As for the experimental part:
A viability test was carried out to assess the toxicity of SN38 as well as the photoremovable protecting group-SN38 conjugates X1′-SN38 and X2′-SN38 after light irradiation and in the dark on SKOV3 cells. Cells were transferred into a 48-well plate (Thermo Fisher Scientific, 130187) (4,500 cells/well) and incubated for 20-24 h at 37° C. in a 5% CO2 atmosphere in McCoy's 5A (Modified) Medium, HEPES (Gibco 22330021) supplemented with 10% FBS (Gibco 10500-064), 1% penicillin-streptomycin (Gibco 15140-122). Cells were treated with compounds in the concentration range of 10^−11-10^−4 M for 90 min followed by light irradiation or kept in the dark at 37° C. in 5% CO2 atmosphere. After treatment and irradiation, cells were kept at 37° C. in 5% CO2 atmosphere for 72 hours. After the incubation period, supernatants were replaced with 0.5 mg/ml MTT (3-(4,5-dimethylthiazol-2-yl)-2,5-diphenyltetrazolium bromide; Sigma M5655-1G) solution (in complete DMEM: Dulbecco's modified Eagle's medium (DMEM, Gibco 41965-039), supplemented with 10% FBS (Gibco 10500-064), 1% penicillin-streptomycin (Gibco 15140-122), 1% Glutamax (Gibco 35050-061) and 1% sodium pyruvate (Life Technologies, Gibco 11360-070)) and incubated for 120 min at 37° C. in the dark. The insoluble formazan crystals were dissolved in 250 μl DMSO. Absorbance was detected at 540 nm using a Biotek Synergy 2 Cytation 3 imaging plate reader with Gen5 software version 3.08 (Biotek Winooski, VT, USA). Viability was expressed as percentage (n=3) of the readings of untreated control cells.
To determine phototoxic properties of compounds X1′-SN38 and X2′-SN38, standard MTT assays were performed on SK—OV-3 cells. To irradiate multiple specimens, an LED panel was custom-made for a 48-well plate consisting of 24 LEDs using green (4 W input power, λmax=549 nm half-width: 16 nm, output power: 72 mW), orange (4 W input power, λmax=605 nm half-width: 10 nm, output power: 140 mW) and red (4 W input power, λmax=658 nm half-width: 10 nm, for Q=CMe2 output power: 210 mW) LED irradiation. The board was specifically designed for the plates and offer water cooling to minimize heat shock to cells. Every second well can be irradiated with an individual LED. First, the cytotoxicity of the free active agent, SN38 was determined to be EC50 ^˜6 nM. Treatment of cells with the photoactivatable SN38 derivatives for 72 hours in the absence of light (without washing) produced moderate cytotoxic effects, sigificantly lowering the effectiveness of the active agent. This confirms that SN38 is a suitable candidate for light-activated prodrug applications. […] Reducing the irradiation time down to 10 s still produced significant phototoxicity in higher concentrations (see FIG. 8a for compound X2′-SN38) even assuming incomplete uncaging as a result of the substantial dark stability of compound X2′-SN38.
Background: Formazan colour is commonly taken as a measure of viable cells.

Turning to `CC(OCc1ccccc1)C1=C2C=CC(=[N+]3CCCC3)C=C2C(C)(C)c2cc(N3CCCC3)ccc21.[I-]` (centres unmarked) [Compound 35, 1-(10-(1-(benzyloxy)ethyl)-9,9-dimethyl-7-(pyrrolidin-1-yl)anthracen-2 (9H)-ylidene)pyrrolidin-1-ium iodide], in data set [1], the “λem (fluorescence emission maximum)” value is 659 nm, the “λmax (absorption maximum)” value is given as 635 nm and the “ε (molar absorption coefficient)” value is 81 200 M^−1cm^−1.
Take `CC(OC(=O)Cc1ccccc1)c1c2ccc(=O)cc-2oc2cc(N3CCCC3)ccc12` (centres unmarked) [Compound 39, 1-(3-oxo-6-(pyrrolidin-1-yl)-3H-xanthen-9-yl)ethyl 2-phenylacetate]: in data set [2], the “ε × Φu, uncaging cross-section / quantum efficiency” value turned out to be 1070 M⁻¹ cm⁻¹; the “Φu, uncaging quantum yield” value is reported as 4.7%; the “Φdeg, degradation quantum yield” value is listed as 6.2%. Besides, in data set [1], the “λem (fluorescence emission maximum)” value is listed as 564 nm, the “λmax (absorption maximum)” value is reported as 538 nm and the “ε (molar absorption coefficient)” value is on record as 22 700 M^−1cm^−1. The “release of phenylacetic acid” value in data set [3] is 54%.
With `CC[N+]1=c2cc3c(cc2C(C)CC1(C)C)=C(C(C)OC(=O)Cc1ccccc1)c1cc2c4c(c1C3(C)C)CCCN4CCC2` (centres unmarked) [Compound 45], in data set [2], the “ε × Φu, uncaging cross-section / quantum efficiency” value came out at 1390 M⁻¹ cm⁻¹; the “Φu, uncaging quantum yield” value is 1.6%; the “Φdeg, degradation quantum yield” value was 2.6%. Moreover, in data set [1], the “λem (fluorescence emission maximum)” value is 680 nm, the “λmax (absorption maximum)” value amounted to 660 nm and the “ε (molar absorption coefficient)” value was 83 800 M^−1cm^−1.
Turning to `CC(OC(=O)N1CCN(c2ccccc2)CC1)C1=C2C=CC(=[N+]3CCCC3)C=C2C(C)(C)c2cc(N3CCCC3)ccc21` (centres unmarked) [Compound 49, 1-(9,9-dimethyl-10-(1-((4-phenylpiperazine-1-carbonyl)oxy)ethyl)-7-(pyrrolidin-1-yl)anthracen-2 (9H)-ylidene)pyrrolidin-1-ium], in data set [2], the “ε × Φu, uncaging cross-section / quantum efficiency” value is 690 M⁻¹ cm⁻¹; the “Φu, uncaging quantum yield” value is 0.92%; the “Φdeg, degradation quantum yield” value is 1.7%. Further, in data set [1], the “λem (fluorescence emission maximum)” value was determined as 673 nm, the “λmax (absorption maximum)” value amounted to 637 nm and the “ε (molar absorption coefficient)” value was 75 100 M^−1cm^−1.
As for `CCc1c2c(nc3ccc(O)cc13)-c1cc3c(c(=O)n1C2)COC(=O)[C@]3(O)CC` [SN38, 7-ethyl-10-hydroxycamptothecin, reference compound], the cell viability (as a rule, a read-out of living cells in per cent, often relative to untreated cells) in the data set with SK-OV-3 cells (50 nM) stood at 29%; in the data set on SK-OV-3 cells (100 nM) it was 27%; in the data set on SK-OV-3 cells (200 nM), 30%. Further, in the data set on SK-OV-3 cells (dark, 72 h, MTT, read-out: Dark EC50 values), the EC50 (in general, the concentration needed to bring the measured effect to its halfway point) was found to be 6.2 nM.
